Reference: patent US20090099158A1, “TETRAHYDROISOQUINOLINE COMPOUNDS AS MODULATORS OF THE HISTAMINE H3 RECEPTOR” (priority 2007, published 2009)

target: Rat H3 (Rattus norvegicus, UniProt Q9QYN8); test: H3 Receptor Binding (Rat); parameters: A rat brain without cerebellum (Zivic Laboratories Inc., Pittsburgh, Pa.) was homogenized; tissue Zivic Laboratories Inc; host or cells: rat brain without cerebellum (membranes); conditions: rat brain (without cerebellum) membranes; 0.8 nM N-[3H]-α-methylhistamine, 60 min at 25° C.; IC50 converted to Ki; average
Experimental: A rat brain without cerebellum (Zivic Laboratories Inc., Pittsburgh, Pa.) was homogenized in 50 mM Tris-HCl/5 mM EDTA and centrifuged at 1,000 rpm for 5 min. The supernatant was removed and recentrifuged at 15,000 rpm for 30 min. Pellets were rehomogenized in 50 mM Tris/5 mM EDTA (pH 7.4). Membranes were incubated with 0.8 nM N-[^3H]-α-methylhistamine plus/minus test compounds for 60 min at 25° C. and harvested by rapid filtration over GF/C glass fiber filters (pretreated with 0.3% polyethylenimine) followed by four washes with buffer. Nonspecific binding was defined in the presence of 100 μM histamine. Inhibitory concentration (responsible for 50% inhibition of maximal effect, IC50) values were determined by a single site curve-fitting program (GraphPad, San Diego, Calif.) and converted to Ki values based on a N-[^3H]-α-methylhistamine dissociation constant (Kd) of 0.8 nM. Data for compounds tested in this assay are presented in Table 2 as an average of the results obtained.

Sequence of Rat H3 (Q9QYN8 whole entry): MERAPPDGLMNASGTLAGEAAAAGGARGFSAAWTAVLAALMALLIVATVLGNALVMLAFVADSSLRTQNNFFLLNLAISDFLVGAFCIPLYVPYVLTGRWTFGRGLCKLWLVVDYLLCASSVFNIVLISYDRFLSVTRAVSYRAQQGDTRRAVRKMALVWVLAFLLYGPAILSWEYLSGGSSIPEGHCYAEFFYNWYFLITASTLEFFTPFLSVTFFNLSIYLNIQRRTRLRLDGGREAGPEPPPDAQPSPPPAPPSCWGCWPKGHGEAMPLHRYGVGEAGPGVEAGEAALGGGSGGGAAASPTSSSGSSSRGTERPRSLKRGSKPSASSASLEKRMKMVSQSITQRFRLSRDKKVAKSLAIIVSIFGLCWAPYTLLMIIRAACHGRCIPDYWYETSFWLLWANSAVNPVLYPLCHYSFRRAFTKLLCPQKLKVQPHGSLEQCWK

SMILES	Ki [nM]
O=C(c1ccc2c(c1)CCN(C(=O)c1ccccc1)C2)N1CCN(C2CCC2)CC1 [Example 27, (2-Benzoyl-1,2,3,4-tetrahydro-isoquinolin-6-yl)-(4-cyclobutyl-piperazin-1-yl)-methanone]	84

target: T1, cloned human H3 receptors (Homo sapiens, UniProt Q9Y5N1); test: H3 Receptor Binding (Human); conditions: cloned human H3 receptors stably expressed in SK-N-MC cells; average of the results obtained
T1 construct: expressed in transfected cells; host or cells: SK-N-MC cells
Experimental: Binding of compounds to the cloned human H3 receptors, stably expressed in SK-N-MC cells, was performed as described by Barbier, A. J. et al. (Br. J. Pharmacol. 2004, 143(5), 649-661). Data for compounds tested in this assay are presented in Table 1 as an average of the results obtained.

T1 sequence (Q9Y5N1 whole entry): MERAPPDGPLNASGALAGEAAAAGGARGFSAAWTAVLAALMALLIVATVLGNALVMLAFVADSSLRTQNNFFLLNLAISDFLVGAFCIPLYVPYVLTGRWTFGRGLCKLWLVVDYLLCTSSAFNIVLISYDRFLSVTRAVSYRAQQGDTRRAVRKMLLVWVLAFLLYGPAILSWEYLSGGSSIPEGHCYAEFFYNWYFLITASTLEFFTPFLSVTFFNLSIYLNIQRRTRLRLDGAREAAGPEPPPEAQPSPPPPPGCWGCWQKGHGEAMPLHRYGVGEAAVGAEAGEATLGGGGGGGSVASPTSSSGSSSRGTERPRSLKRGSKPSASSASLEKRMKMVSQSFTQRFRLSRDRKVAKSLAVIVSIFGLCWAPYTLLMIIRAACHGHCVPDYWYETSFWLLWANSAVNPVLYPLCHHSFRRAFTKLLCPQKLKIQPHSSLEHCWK

SMILES	Ki [nM]
O=C(C1CCCCC1)N1CCc2cc(CN3CCC[C@H]3CN3CCCC3)ccc2C1 [Example 169, Cyclohexyl-[6-(2-pyrrolidin-1-ylmethyl-pyrrolidin-1-ylmethyl)-3,4-dihydro-1H-isoquinolin-2-yl]-methanone]	269
O=C(c1ccc2c(c1)CCN(C(=O)C1CCCCC1)C2)N1CCN(C2CCCCC2)CC1 [Example 160, Cyclohexyl-[6-(4-cyclohexyl-piperazine-1-carbonyl)-3,4-dihydro-1H-isoquinolin-2-yl]-methanone]	84
CC(C)S(=O)(=O)N1CCc2cc(C(=O)N3CCN(C4CCC4)CC3)ccc2C1 [Example 102, (4-Cyclobutyl-piperazin-1-yl)-[2-(propane-2-sulfonyl)-1,2,3,4-tetrahydro-isoquinolin-6-yl]-methanone]	25
Cc1ccc(C(=O)N2CCc3cc(C(=O)N4CCN5CCCCC5C4)ccc3C2)cc1 (centres unmarked) [Example 97, [2-(4-Methyl-benzoyl)-1,2,3,4-tetrahydro-isoquinolin-6-yl]-(octahydro-pyrido[1,2-a]pyrazin-2-yl)-methanone]	38
CC(C)(C)c1ccc(C(=O)N2CCc3cc(C(=O)N4CCN(C5CCC5)CC4)ccc3C2)cc1 [Example 131, [2-(4-tert-Butyl-benzoyl)-1,2,3,4-tetrahydro-isoquinolin-6-yl]-(4-cyclobutyl-piperazin-1-yl)-methanone]	78
O=C(c1ccc2c(c1)CCN(C(=O)c1cccc(Cl)c1)C2)N1CCN(C2CCCCC2)CC1 [Example 76, [2-(3-Chloro-benzoyl)-1,2,3,4-tetrahydro-isoquinolin-6-yl]-(4-cyclohexyl-piperazin-1-yl)-methanone]	100
COc1ccc(C(=O)N2CCc3cc(C(=O)N4CCN(C(C)C)CC4)ccc3C2)cc1 [Example 108, (4-Isopropyl-piperazin-1-yl)-[2-(4-methoxy-benzoyl)-1,2,3,4-tetrahydro-isoquinolin-6-yl]-methanone]	28
COc1cccc(C(=O)N2CCc3cc(C(=O)N4CCN(C5CCCCC5)CC4)ccc3C2)c1 [Example 79, (4-Cyclohexyl-piperazin-1-yl)-[2-(3-methoxy-benzoyl)-1,2,3,4-tetrahydro-isoquinolin-6-yl]-methanone]	169
O=C(c1ccc2c(c1)CCN(C(=O)C1CCCCC1)C2)N1CCN(CC2CCCO2)CC1 (centres unmarked) [Example 151, Cyclohexyl-{6-[4-(tetrahydro-furan-2-ylmethyl)-piperazine-1-carbonyl]-3,4-dihydro-1H-isoquinolin-2-yl}-methanone]	5200
O=C(c1ccc(F)cc1)N1CCc2cc(C(=O)N3CCN4CCCCC4C3)ccc2C1 (centres unmarked) [Example 88, [2-(4-Fluoro-benzoyl)-1,2,3,4-tetrahydro-isoquinolin-6-yl]-(octahydro-pyrido[1,2-a]pyrazin-2-yl)-methanone]	24
O=C(c1ccc2c(c1)CCN(C(=O)c1ccc(C3CCCCC3)cc1)C2)N1CCN(C2CCC2)CC1 [Example 132, (4-Cyclobutyl-piperazin-1-yl)-[2-(4-cyclohexyl-benzoyl)-1,2,3,4-tetrahydro-isoquinolin-6-yl]-methanone]	100
CCCN1CCc2cc(C(=O)N3CCOCC3)ccc2C1 [Example 180, Morpholin-4-yl-(2-propyl-1,2,3,4-tetrahydro-isoquinolin-6-yl)-methanone]	9000
O=C(c1ccc2c(c1)CCN(C(=O)c1ccccc1F)C2)N1CCN(C2CCCC2)CC1 [Example 66, (4-Cyclopentyl-piperazin-1-yl)-[2-(2-fluoro-benzoyl)-1,2,3,4-tetrahydro-isoquinolin-6-yl]-methanone]	43
CN1CCC(N(C)C(=O)c2ccc3c(c2)CCN(C(=O)C2CCCCC2)C3)C1 (centres unmarked) [Example 161, 2-Cyclohexanecarbonyl-1,2,3,4-tetrahydro-isoquinoline-6-carboxylic acid methyl-(1-methyl-pyrrolidin-3-yl)-amide]	421

Now those with a lower Ki, led by results:

Ki [nM]	SMILES
9	O=C(c1ccc2c(c1)CCN(C(=O)c1ccccc1)C2)N1CCN(C2CCC2)CC1 [Example 27, (2-Benzoyl-1,2,3,4-tetrahydro-isoquinolin-6-yl)-(4-cyclobutyl-piperazin-1-yl)-methanone]
13	O=C(C1CCCCC1)N1CCc2cc(CN3CCN4CCCCC4C3)ccc2C1 (centres unmarked) [Example 168, Cyclohexyl-[6-(octahydro-pyrido[1,2-a]pyrazin-2-ylmethyl)-3,4-dihydro-1H-isoquinolin-2-yl]-methanone]
7	O=C(c1ccc2c(c1)CCN(C(=O)c1ccc([N+](=O)[O-])cc1)C2)N1CCN(C2CCC2)CC1 [Example 122, [6-(4-Cyclobutyl-piperazine-1-carbonyl)-3,4-dihydro-1H-isoquinolin-2-yl]-(4-nitro-phenyl)-methanone]
15	N#Cc1ccc(CN2CCc3cc(C(=O)N4CCN(C5CCC5)CC4)ccc3C2)cc1 [Example 25, 4-[6-(4-Cyclobutyl-piperazine-1-carbonyl)-3,4-dihydro-1H-isoquinolin-2-ylmethyl]-benzonitrile]
14	O=C(c1cccc(F)c1)N1CCc2cc(C(=O)N3CCC[C@H]3CN3CCCC3)ccc2C1 [Example 57, (S)-(3-Fluoro-phenyl)-[6-(2-pyrrolidin-1-ylmethyl-pyrrolidine-1-carbonyl)-3,4-dihydro-1H-isoquinolin-2-yl]-methanone]
17	O=C(c1ccc(F)cc1)N1CCc2cc(C(=O)N3CCC[C@H]3CN3CCCC3)ccc2C1 [Example 58, (S)-(4-Fluoro-phenyl)-[6-(2-pyrrolidin-1-ylmethyl-pyrrolidine-1-carbonyl)-3,4-dihydro-1H-isoquinolin-2-yl]-methanone]
11	O=C(c1ccc2c(c1)CCN(C(=O)c1cccc(Cl)c1)C2)N1CCN(C2CCC2)CC1 [Example 119, (3-Chloro-phenyl)-[6-(4-cyclobutyl-piperazine-1-carbonyl)-3,4-dihydro-1H-isoquinolin-2-yl]-methanone]
9	N#Cc1ccc(C(=O)N2CCc3cc(C(=O)N4CCC[C@H]4CN4CCCC4)ccc3C2)cc1 [Example 53, (S)-4-[6-(2-Pyrrolidin-1-ylmethyl-pyrrolidine-1-carbonyl)-3,4-dihydro-1H-isoquinoline-2-carbonyl]-benzonitrile]
21	COc1ccc(C(=O)N2CCc3cc(C(=O)N4CCC[C@H]4CN4CCCC4)ccc3C2)cc1 [Example 60, (S)-(4-Methoxy-phenyl)-[6-(2-pyrrolidin-1-ylmethyl-pyrrolidine-1-carbonyl)-3,4-dihydro-1H-isoquinolin-2-yl]-methanone]
9	Cc1ccccc1C(=O)N1CCc2cc(C(=O)N3CCC[C@H]3CN3CCCC3)ccc2C1 [Example 54, (S)-[6-(2-Pyrrolidin-1-ylmethyl-pyrrolidine-1-carbonyl)-3,4-dihydro-1H-isoquinolin-2-yl]-o-tolyl-methanone]
12	O=C(c1ccccc1Cl)N1CCc2cc(C(=O)N3CCC[C@H]3CN3CCCC3)ccc2C1 [Example 50, (S)-(2-Chloro-phenyl)-[6-(2-pyrrolidin-1-ylmethyl-pyrrolidine-1-carbonyl)-3,4-dihydro-1H-isoquinolin-2-yl]-methanone]
9	O=C(C1CCCCC1)N1CCc2cc(C(=O)N3CCC[C@H]3CN3CCCC3)ccc2C1 [Example 150, (S)-Cyclohexyl-[6-(2-Pyrrolidin-1-ylmethyl-pyrrolidine-1-carbonyl)-3,4-dihydro-1H-isoquinolin-2-yl]-methanone]
19	O=C(c1ccc2c(c1)CCN(C(=O)c1ccc(F)c(Cl)c1)C2)N1CCN(C2CCC2)CC1 [Example 128, [2-(3-Chloro-4-fluoro-benzoyl)-1,2,3,4-tetrahydro-isoquinolin-6-yl]-(4-cyclobutyl-piperazin-1-yl)-methanone]
1	O=C(c1ccc2c(c1)CCN(C(=O)c1ccc(F)c(O)c1)C2)N1CCCN(C2CCC2)CC1 [Example 141, [6-(4-Cyclobutyl-[1,4]diazepane-1-carbonyl)-3,4-dihydro-1H-isoquinolin-2-yl]-(4-fluoro-3-hydroxy-phenyl)-methanone]
20	O=C(c1ccc2c(c1)CCN(Cc1ccc(C(F)(F)F)cc1)C2)N1CCN(C2CCC2)CC1 [Example 14, (4-Cyclobutyl-piperazin-1-yl)-[2-(4-trifluoromethyl-benzyl)-1,2,3,4-tetrahydro-isoquinolin-6-yl]-methanone]
17	O=C(c1ccc2c(c1)CCN(C(=O)c1ccc(F)cc1)C2)N1CCN(C2CCC2)CC1 [Example 125, (4-Cyclobutyl-piperazin-1-yl)-[2-(4-fluoro-benzoyl)-1,2,3,4-tetrahydro-isoquinolin-6-yl]-methanone]
20	O=C(c1ccccc1)N1CCc2cc(C(=O)N3CCN4CCCCC4C3)ccc2C1 (centres unmarked) [Example 99, (2-Benzoyl-1,2,3,4-tetrahydro-isoquinolin-6-yl)-(octahydro-pyrido[1,2-a]pyrazin-2-yl)-methanone]
